Measurements published in publication PMC7893776, “Selecting an anti-malarial clinical candidate from two potent dihydroisoquinolones” (Malaria Journal, 2021).
Converted amounts (≈) assume the structure as drawn.

Columns and labels:
Thermodynamic solubility = type: physicochemical; details: for solubility thermodynamic: 37 °C, thermodynamic from solid
Experimental: Solubility was also evaluated in fasted (FaSSIF-V2) or fed (FeSSIF-V2) state simulated intestinal fluids. These media contain lipolysis breakdown products (glycerol monooleate and oleic acid) in addition to bile salt (sodium taurocholate) and phospholipid (lecithin) and were buffered to simulate approximate pH conditions found in the fasted (pH 6.5) or fed (pH 5.8) state small intestine. Control media (blank FaSSIF-V2 and FeSSIF-V2 buffers) lacking bile salt, phospholipid and lipolysis products were also investigated.
Compounds were weighed into individual screw cap polypropylene tubes and aqueous buffer, 0.1 N HCl, or simulated intestinal fluid added to provide a compound concentration of between 700 and 5000 μg/mL. Samples were vortexed, placed in a 37 °C incubator, and mixed on an orbital shaker (IKA® VXR basic Vibrax® orbital shaker) set at 600 rpm. Samples were regularly examined to ensure excess solid was present. Sampling was conducted after 1, 4, 6, and 24 h by centrifuging each sample at 10,000 rpm for 3 min, transferring a 200 µL aliquot into fresh Eppendorf tubes, and centrifuging again at 10,000 rpm for 3 min. Duplicate aliquots of the final supernatant were removed and diluted to an appropriate analytical concentration in 50% aqueous methanol prior to analysis by HPLC. HPLC analysis was conducted on a Waters 2695 HPLC system coupled to a Waters 2487 dual absorbance wavelength detector, analyzing at 254 nm. A Phenomenex Luna C18(2) column (3 µm, 50 × 2.0 mm i.d.) was used for analysis, with the column temperature maintained at 40 °C. Concentrations were quantified by comparison to a calibration curve prepared over the concentration range in 50% aqueous methanol. The mobile phase consisted of water, methanol, and 1% aqueous formic acid. Separations were conducted using a flow rate of 0.4 mL/min and an injection volume of 5 µL. Processed samples were maintained in the autosampler at a temperature of 10 °C.

[1] = LogP, Gemini Profiler titration; type: physicochemical
Experimental: LogP was measured using a Gemini Profiler instrument (pION Inc., Billerica, MA). 1–2 mg of compound was dissolved in octanol (0.5 mL) in a test tube. The test tube was purged with argon and a magnetic stir bar was added. The solution was treated with aqueous KCl (2.5 mL, 0.15 M) and stirred for 10 min. The pH was adjusted to 2 by addition of aqueous HCl (0.5 M). The resulting solution was titrated by adding aqueous KOH (0.5 M) in small aliquots (controlled by the Gemini Profiler software), until the pH reached 12. The volume of each addition and the corresponding pH of the test solution were recorded. Data were processed using pS software. The data points were fitted to a Bjerrum plot to achieve the best GOF (goodness of fitness) and a logP value was obtained. All measurements were conducted in triplicate.

dog plasma proteins = test: Plasma protein binding (RED), dog; type: in vitro ADME; details: average of 20, 4, 0.8 µM
Experimental: (§1) A Rapid Equilibrium Dialysis (RED) Plate (Thermo Scientific, catalog #, PI-90007) was used to determine the percentage of compound binding to plasma proteins. The positive control for this experiment was propranolol-HCl (10 mM in DMSO) and the internal standard was warfarin (2 µM in methanol). 10 mM stocks of compound in DMSO were diluted with DMSO acetonitrile (1:4, v:v) to three different intermediate concentrations: high (2 mM), medium (0.4 mM) and low (0.08 mM). A 10 mM stock of propranolol in DMSO was diluted to 0.4 mM concentration in DMSO:acetonitrile (1:4 v:v). In 16 Eppendorf tubes, the control (10 µL) or each of three compound dilutions (10 µL) were each added to separate aliquots of mouse, rat, dog, and human plasma (990 µL). In the RED plate, potassium phosphate buffer (500 µL, 0.1 M, pH 7.4, 37 °C) was placed in every white well and each plasma/compound mixture was added to each of 3 red wells. […] The compounds and internal standard were detected by selected ion recording (SIR). Using the peak area ratio of compound to warfarin from the SIR spectra, the percentage of free compound [1] and bound compound [2] were calculated using the following equations: (1) % free = (concentration buffer chamber/concentration plasma chamber)*100, and (2) % bound = 100 − % free.

Kinetic solubility = type: physicochemical
Experimental: Solubility assays were carried out on a Biomek FX lab automation workstation (Beckman Coulter, Inc., Fullerton, CA) using µSOL Evolution software (pION Inc., Woburn, MA). Compound stock (10 mM in DMSO, 10 µL) was added to 1-propanol (190 µL) to make a reference stock plate. Reference stock solution (5 µL) was mixed with 1-propanol (70 µL) and citrate phosphate buffered saline (75 µL) to make the reference plate and the UV spectrum (250 nm–500 nm) of the […] was read. Test compound stock (10 mM in DMSO, 6 µL) was added to buffer (594 µL) in a 96-well storage plate and mixed. The storage plate was sealed and incubated at room temperature for 18 h. The suspension was then filtered through a 96-well filter plate (pION Inc., Woburn, MA). Filtrate (75 µL) was mixed with 1-propanol (75 µL) to make the sample plate, and the UV spectrum (250 nm – 500 nm) of the sample plate was read. Calculation was carried out by µSOL Evolution software based on the […] (area under curve) of UV spectrum of the sample plate and the reference plate. All compounds were tested in triplicate.

human plasma proteins = test: Plasma protein binding (RED), human; type: in vitro ADME; details: average of 20, 4, 0.8 µM
Experimental: as §1

SMILES: N#Cc1cc(NC(=O)[C@H]2c3ccccc3C(=O)N(CC(F)(F)F)[C@@H]2c2cccnc2)ccc1F [(+)-SJ733]
- Solubility (Thermodynamic solubility; 0.1 N HCl pH 1, 37°C, 1 h): 6817 µM (≈ 3190 µg/mL)
- Solubility (Thermodynamic solubility; 0.1 N HCl pH 1, 37°C, 4 h): 7321 µM (≈ 3430 µg/mL)
- Solubility (Thermodynamic solubility; 0.1 N HCl pH 1, 37°C, 6 h): 7376 µM (≈ 3450 µg/mL)
- Solubility (Thermodynamic solubility; 0.1 N HCl pH 1, 37°C, 24 h): 7891 µM (≈ 3700 µg/mL)
- Solubility (Thermodynamic solubility; FaSSIF blank pH 6.5, 37°C, 1 h): 81 µM (≈ 37.9 µg/mL)
- Solubility (Thermodynamic solubility; FaSSIF blank pH 6.5, 37°C, 4 h): 92 µM (≈ 43.1 µg/mL)
- Solubility (Thermodynamic solubility; FaSSIF blank pH 6.5, 37°C, 6 h): 96 µM (≈ 45 µg/mL)
- Solubility (Thermodynamic solubility; FaSSIF blank pH 6.5, 37°C, 24 h): 100 µM (≈ 46.8 µg/mL)
- Solubility (Thermodynamic solubility; FaSSIF-V2 pH 6.5, 37°C, 1 h): 199 µM (≈ 93.2 µg/mL)
- Solubility (Thermodynamic solubility; FaSSIF-V2 pH 6.5, 37°C, 4 h): 216 µM (≈ 101 µg/mL)
- Solubility (Thermodynamic solubility; FaSSIF-V2 pH 6.5, 37°C, 24 h): 207 µM (≈ 97 µg/mL)
- Solubility (Thermodynamic solubility; FeSSIF blank pH 5.8, 37°C, 1 h): 83 µM (≈ 38.9 µg/mL)
- Solubility (Thermodynamic solubility; FeSSIF blank pH 5.8, 37°C, 4 h): 88 µM (≈ 41.2 µg/mL)
- Solubility (Thermodynamic solubility; FeSSIF blank pH 5.8, 37°C, 6 h): 100 µM (≈ 46.8 µg/mL)
- Solubility (Thermodynamic solubility; FeSSIF blank pH 5.8, 37°C, 24 h): 107 µM (≈ 50.1 µg/mL)
- Solubility (Thermodynamic solubility; FeSSIF-V2 pH 5.8, 37°C, 1 h): 237 µM (≈ 111 µg/mL)
- Solubility (Thermodynamic solubility; FeSSIF-V2 pH 5.8, 37°C, 4 h): 250 µM (≈ 117 µg/mL)
- Solubility (Thermodynamic solubility; FeSSIF-V2 pH 5.8, 37°C, 24 h): 248 µM (≈ 116 µg/mL)
- Solubility (Thermodynamic solubility; Phosphate buffer pH 7.4, 37°C, 1 h): 207 µM (≈ 97 µg/mL)
- Solubility (Thermodynamic solubility; Phosphate buffer pH 7.4, 37°C, 4 h): 250 µM (≈ 117 µg/mL)
- Solubility (Thermodynamic solubility; Phosphate buffer pH 7.4, 37°C, 24 h): 250 µM (≈ 117 µg/mL)

SMILES: N#Cc1cc(NC(=O)C2c3ccccc3C(=O)N(CC(F)(F)F)C2c2cccnc2)ccc1F (racemic) [(r)-SJ733]
- LogP [1]: 2.95 ± 0.03 (logP( +))
- % bound (dog plasma proteins): 88.3 ± 3.1%
- Kinetic solubility (Kinetic solubility; pH 3): 84 ± 3 µM
- Kinetic solubility (Kinetic solubility; pH 5): 84 ± 3 µM
- Kinetic solubility (Kinetic solubility; pH 7.4): 65 ± 4 µM
- % bound (human plasma proteins): 94.3 ± 0.6%

SMILES: N#Cc1cc(NC(=O)C2c3ccccc3C(=O)N(CC(F)(F)F)C2c2cn[nH]c2)ccc1F (racemic) [(r)-SJ311]
- LogP [1]: 1.24 ± 0.28 (logP( +))
- % bound (dog plasma proteins): 90.0 ± 1.0%
- Kinetic solubility (Kinetic solubility; pH 3): 80 ± 7 µM
- Kinetic solubility (Kinetic solubility; pH 5): 80 ± 7 µM
- Kinetic solubility (Kinetic solubility; pH 7.4): 66 ± 7 µM
- % bound (human plasma proteins): 95.3 ± 0.6%

SMILES: N#Cc1cc(NC(=O)[C@H]2c3ccccc3C(=O)N(CC(F)(F)F)[C@@H]2c2cccnc2)ccc1F (racemic) [SJ733]
- solubility thermodynamic (Thermodynamic solubility; 0.1 N HCl, pH 1, simulated gastric fluid, strongly acidic conditions): > 3000 µg/mL
- solubility thermodynamic (Thermodynamic solubility; aqueous buffer, pH 7.4, 6.5, and 5.8 aqueous buffers): 81 to 237 µM
